Tests used:
HBV = assay: Determination of HBV DNA from the supernatants of HepAD38 cells (anti-HBV activity); conditions: Hepatitis B virus, HePAD38, 144 h, read-out: Cell Activity
[1] = Cell viability assay (AlamarBlue); assay type: cell-based; conditions: human, HepAD38 cells in the presence of 0.3 μg/ml tetracycline, six days incubation
Procedure: Using the AlamarBlue viability assay cytotoxicity was evaluated in HepAD38 cells in the presence of 0.3 μg/ml tetracycline, which blocks the expression of the HBV genome. Assay condition and plate layout were in analogy to the anti-HBV assay, however other controls were used. On each assay plate six wells containing untreated HepAD38 cells were used as the 100% viability control, and six wells filled with assay medium only were used as 0% viability control. In addition, a geometric concentration series of cycloheximide starting at 60 μM final assay concentration was used as positive control in each experiment. After six days incubation period Alamar Blue Presto cell viability reagent (ThermoFisher, Dreieich) was added in 1/11 dilution to each well of the assay plate. After an incubation for 30 to 45 min at 37° C. the fluorescence signal, which is proportional to the number of living cells, was read using a Tecan Spectrafluor Plus plate reader with an excitation filter 550 nm and emission filter 595 nm, respectively. […] Mean EC50 and CC50 values were used to calculate the selectivity index (SI=CC50/EC50) for each test compound.

In the case of `COCC1(N(C)C(=O)c2cnn3c2CN(C(=O)Nc2ccc(F)c(Cl)c2)C(C)C3)CC1` (stereo not shown) [Example 1, N5-(3-chloro-4-fluorophenyl)-N3-[1-(methoxymethyl)cyclopropyl]-N3,6-dimethyl-4H,5H,6H,7H-pyrazolo[1,5-a]pyrazine-3,5-dicarboxamide], the EC50 (HBV) is reported as < 1 µM and the CC50 at 6 days [1] is reported as > 10 µM.
In the case of `CC(C)OCC1(N(C)C(=O)c2cnn3c2CN(C(=O)Nc2ccc(F)c(Cl)c2)CC3)CC1` [Example 2, N5-(3-chloro-4-fluorophenyl)-N3-methyl-N3-{1-[(propan-2-yloxy)methyl]cyclopropyl}-4H,5H,6H,7H-pyrazolo[1,5-a]pyrazine-3,5-dicarboxamide], the EC50 (HBV) is reported as < 1 µM and the CC50 at 6 days [1] is reported as > 10 µM.
With `CCOCC1(N(C)C(=O)c2cnn3c2CN(C(=O)Nc2ccc(F)c(Cl)c2)CC3)CC1` [Example 3, N5-(3-chloro-4-fluorophenyl)-N3-[1-(ethoxymethyl)cyclopropyl]-N3-methyl-4H,5H,6H,7H-pyrazolo[1,5-a]pyrazine-3,5-dicarboxamide] the EC50 (HBV) was < 1 µM and the CC50 at 6 days [1] was > 10 µM.
In the case of `CN(C(=O)c1cnn2c1CN(C(=O)Nc1ccc(F)c(Cl)c1)CC2)C1(COC(F)F)CC1` [Example 4, N5-(3-chloro-4-fluorophenyl)-N3-{1-[(difluoromethoxy)methyl]cyclopropyl}-N3-methyl-4H,5H,6H,7H-pyrazolo[1,5-a]pyrazine-3,5-dicarboxamide], the EC50 (HBV) is reported as < 1 µM and the CC50 at 6 days [1] is reported as > 10 µM.
For `O=C(Nc1ccc(F)c(Cl)c1)N1CCn2ncc(C(=O)N3CC(F)(F)CC34CC4)c2C1` [Example 5, N-(3-chloro-4-fluorophenyl)-3-{6,6-difluoro-4-azaspiro[2.4]heptane-4-carbonyl}-4H,5H,6H,7H-pyrazolo[1,5-a]pyrazine-5-carboxamide], the EC50 (HBV) was < 1 µM and the CC50 at 6 days [1] was > 10 µM.
With `CC1Cn2ncc(C(=O)N(C)C3(COC(F)F)CC3)c2CN1C(=O)Nc1ccc(F)c(Cl)c1` (stereo not shown) [Example 6, N5-(3-chloro-4-fluorophenyl)-N3-{1-[(difluoromethoxy)methyl]cyclopropyl}-N3,6-dimethyl-4H,5H,6H,7H-pyrazolo[1,5-a]pyrazine-3,5-dicarboxamide] the EC50 (HBV) was < 1 µM and the CC50 at 6 days [1] was > 10 µM.
With `CN(C(=O)c1cnn2c1CN(C(=O)Nc1ccc(F)c(Cl)c1)CC2)C1(c2ccncc2)CC1` [Example 7, N5-(3-chloro-4-fluorophenyl)-N3-methyl-N3-[1-(pyridin-4-yl)cyclopropyl]-4H,5H,6H,7H-pyrazolo[1,5-a]pyrazine-3,5-dicarboxamide] the EC50 (HBV) was < 1 µM and the CC50 at 6 days [1] was > 10 µM.
In the case of `CN(C(=O)c1cnn2c1CN(C(=O)Nc1ccc(F)c(Cl)c1)CC2)C1(c2ncccn2)CC1` [Example 8, N5-(3-chloro-4-fluorophenyl)-N3-methyl-N3-[1-(pyrimidin-2-yl)cyclopropyl]-4H,5H,6H,7H-pyrazolo[1,5-a]pyrazine-3,5-dicarboxamide], the EC50 (HBV) is reported as < 1 µM and the CC50 at 6 days [1] is reported as > 10 µM.
For `CN(C(=O)c1cnn2c1CN(C(=O)Nc1ccc(F)c(Cl)c1)CC2)C1(CO)CC1` [Example 9, N5-(3-chloro-4-fluorophenyl)-N3-[1-(hydroxymethyl)cyclopropyl]-N3-methyl-4H,5H,6H,7H-pyrazolo[1,5-a]pyrazine-3,5-dicarboxamide], the EC50 (HBV) was < 1 µM and the CC50 at 6 days [1] was > 10 µM.
For `O=C(Nc1ccc(F)c(Cl)c1)N1CCn2ncc(C(=O)N(CCO)C3(CO)CC3)c2C1` [Example 10, N5-(3-chloro-4-fluorophenyl)-N3-(2-hydroxyethyl)-N3-[1-(hydroxymethyl)cyclopropyl]-4H,5H,6H,7H-pyrazol [1,5-a]pyrazine-3,5-dicarboxamide], the EC50 (HBV) was < 1 µM and the CC50 at 6 days [1] was > 10 µM.
For `O=C(Nc1ccc(F)c(Cl)c1)N1CCn2ncc(C(=O)N3CCCOCC34CC4)c2C1` [Example 11, N-(3-chloro-4-fluorophenyl) -3-{8-oxa-4-azaspiro[2.6]nonane-4-carbonyl}-4H,5H,6H,7H-pyrazolo[1,5-a]pyrazine-5-carboxamide], the EC50 (HBV) was < 1 µM and the CC50 at 6 days [1] was > 10 µM.
With `O=C(Nc1ccc(F)c(Cl)c1)N1CCn2ncc(C(=O)N3CCOCCC34CC4)c2C1` [Example 12, N-(3-chloro-4-fluorophenyl)-3-{7-oxa-4-azaspiro[2.6]nonane-4-carbonyl}-4H,5H,6H,7H-pyrazolo[1,5-a]pyrazine-5-carboxamide] the EC50 (HBV) was < 1 µM and the CC50 at 6 days [1] was > 10 µM.
With `CN(C(=O)c1cnn2c1CN(C(=O)Nc1ccc(F)c(Cl)c1)CC2)C1(CNCC(F)(F)F)CC1` [Example 13, N5-(3-chloro-4-fluorophenyl)-N3-methyl-N3-(1-{[(2,2,2-trifluoroethyl)amino]methyl}cyclopropyl)-4H,5H,6H,7H-pyrazolo[1,5-a]pyrazine-3,5-dicarboxamide] the EC50 (HBV) was < 1 µM and the CC50 at 6 days [1] was > 10 µM.
For `CN(C(=O)c1cnn2c1CN(C(=O)Nc1ccc(F)c(Cl)c1)CC2)C1(CCOC(F)F)CCC1` [Example 14, N5-(3-chloro-4-fluorophenyl)-N3-{1-[2-(difluoromethoxy)ethyl]cyclobutyl}-N3-methyl-4H,5H,6H,7H-pyrazolo[1,5-a]pyrazine-3,5-dicarboxamide], the EC50 (HBV) was < 1 µM and the CC50 at 6 days [1] was > 10 µM.
With `CN(C(=O)c1cnn2c1CN(C(=O)Nc1ccc(F)c(Cl)c1)CC2)C1(CCOC(F)F)CCCC1` [Example 15, N5-(3-chloro-4-fluorophenyl) -N3-{1-[2-(difluoromethoxy)ethyl]cyclopentyl}-N3-methyl-4H,5H,6H,7H -pyrazolo [1,5-a]pyrazine-3,5-dicarboxamide] the EC50 (HBV) was < 1 µM and the CC50 at 6 days [1] was > 10 µM.
With `CN(C(=O)c1cnn2c1CN(C(=O)Nc1ccc(F)c(Cl)c1)CC2)C1(CCOC(F)F)CCOCC1` [Example 16, N5-(3-chloro-4-fluorophenyl)-N3-{4-[2-(difluoromethoxy)ethyl]oxan-4-yl}-N3-methyl-4H,5H,6H,7H-pyrazolo[1,5-a]pyrazine-3,5-dicarboxamide] the EC50 (HBV) was < 1 µM and the CC50 at 6 days [1] was > 10 µM.
For `CC1Cn2ncc(C(=O)N(C)C3CC3)c2CN1C(=O)Nc1ccc(F)c(Cl)c1` (stereo not shown) [Example 17, N5-(3-chloro-4-fluorophenyl)-N3-cyclopropyl-N3,6-dimethyl-4H,5H,6H,7H -pyrazolo[1,5-a]pyrazine-3,5-dicarboxamide], the EC50 (HBV) was < 1 µM and the CC50 at 6 days [1] was > 10 µM.
